The source of these data is patent publication US20250171437A1 (Agios Pharmaceuticals,Inc., priority 2022, published 2025).

Bounds are passed on as bounds.

For the assay, the target named is T1, human PAH with the R408W mutation (A375 R408W cells) (Homo sapiens, UniProt P00439, R408W).
T1 construct: expressed in transfected cells
T1 sequence (P00439 1-452 R408W): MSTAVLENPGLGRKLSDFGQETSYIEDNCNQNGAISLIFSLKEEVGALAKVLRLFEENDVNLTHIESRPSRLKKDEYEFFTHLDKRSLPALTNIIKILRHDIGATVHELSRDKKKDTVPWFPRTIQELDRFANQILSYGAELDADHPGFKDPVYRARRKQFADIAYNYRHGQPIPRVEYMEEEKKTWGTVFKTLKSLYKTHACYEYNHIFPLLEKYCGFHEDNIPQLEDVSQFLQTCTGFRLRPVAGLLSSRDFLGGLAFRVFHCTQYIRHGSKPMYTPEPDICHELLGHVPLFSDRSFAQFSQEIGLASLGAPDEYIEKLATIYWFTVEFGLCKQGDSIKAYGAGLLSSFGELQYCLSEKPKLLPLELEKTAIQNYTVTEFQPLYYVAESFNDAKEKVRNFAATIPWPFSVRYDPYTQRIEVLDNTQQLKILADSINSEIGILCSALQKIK
The experiment in a line: Cell Based Phenylalanine Flux Assay. As to conditions: A375 R408W cells; 24 hrs with compound, then 20 μM sepiapterin and 800 μM 13C9,15N-Phenylalanine for 4 hours; 13C-Tyrosine by LC-MS; average where tested multiple times. In a few lines: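 A375 cells stably expressing lentiviral human PAH R408W were treated with compounds (10-point 2-fold dilutions, 0.5% DMSO, duplicate) for 24 h at 37 °C. Then 20 μM sepiapterin and 800 μM 13C9,15N-Phe were added for 4 h; media 13C-Tyr was measured by LC-MS to give AC50.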
Turning to `O=C(c1nnc(-c2ccn(C(F)F)n2)o1)N1CCc2[nH]cnc2[C@H]1c1nc2ccccc2o1` [Example 846, (S)-(4-(benzo[d]oxazol-2-yl)-6,7-dihydro-1H-imidazo[4,5-c]pyridin-5(4H)-yl)(5-(1-(difluoromethyl)-1H-pyrazol-3-yl)-1,3,4-oxadiazol-2-yl)methanone], the AC50 was no more than 500 nM.
Consider `O=C(c1ccnn1CC(F)F)N1CCc2[nH]cnc2[C@H]1c1nc2cccc(F)c2o1` [Example 847, (S)-(1-(2,2-difluoroethyl)-1H-pyrazol-5-yl)(4-(7-fluorobenzo[d]oxazol-2-yl)-6,7-dihydro-1H-imidazo[4,5-c]pyridin-5(4H)-yl)methanone], for which the AC50 was no more than 500 nM.
Consider `O=C(c1ccnn1CC(F)F)N1CCc2[nH]cnc2[C@@H]1c1nc2cccc(F)c2o1` [Example 848, (R)-(1-(2,2-difluoroethyl)-1H-pyrazol-5-yl)(4-(7-fluorobenzo[d]oxazol-2-yl)-6,7-dihydro-1H-imidazo[4,5-c]pyridin-5(4H)-yl)methanone], for which the AC50 was in the range of 500 to 1000 nM.
The value for `O=C(c1ccnn1CC(F)F)N1CCc2[nH]cnc2[C@@H]1c1nc2c(F)cccc2o1` [Example 849, (R)-(1-(2,2-difluoroethyl)-1H-pyrazol-5-yl)(4-(4-fluorobenzo[d]oxazol-2-yl)-6,7-dihydro-1H-imidazo[4,5-c]pyridin-5(4H)-yl)methanone] was no more than 500 nM.
The value for `O=C(c1ccnn1CC(F)F)N1CCc2[nH]cnc2[C@H]1c1nc2c(F)cccc2o1` [Example 850, (S)-(1-(2,2-difluoroethyl)-1H-pyrazol-5-yl)(4-(4-fluorobenzo[d]oxazol-2-yl)-6,7-dihydro-1H-imidazo[4,5-c]pyridin-5(4H)-yl)methanone] was 1000 to 5000 nM; that for `CC(C)(C)c1nnc(C(=O)N2CCc3[nH]cnc3[C@@H]2c2nc3c(F)ccc(F)c3o2)o1` [Example 851, (R)-(5-(tert-butyl)-1,3,4-oxadiazol-2-yl)(4-(4,7-difluorobenzo[d]oxazol-2-yl)-6,7-dihydro-1H-imidazo[4,5-c]pyridin-5(4H)-yl)methanone] was 500 to 1000 nM.
Next, `CC(C)(C)c1nnc(C(=O)N2CCc3[nH]cnc3[C@H]2c2nc3c(F)ccc(F)c3o2)o1` [Example 852, (S)-(5-(tert-butyl)-1,3,4-oxadiazol-2-yl)(4-(4,7-difluorobenzo[d]oxazol-2-yl)-6,7-dihydro-1H-imidazo[4,5-c]pyridin-5(4H)-yl)methanone]: no more than 500 nM; `O=C(c1nnc(-c2ccn(C(F)F)n2)o1)N1CCc2[nH]cnc2[C@@H]1c1nc2cccc(C(F)(F)F)c2o1` [Example 853, (R)-(5-(1-(difluoromethyl)-1H-pyrazol-3-yl)-1,3,4-oxadiazol-2-yl)(4-(7-(trifluoromethyl)benzo[d]oxazol-2-yl)-6,7-dihydro-1H-imidazo[4,5-c]pyridin-5(4H)-yl)methanone]: 500 to 1000 nM.
With `O=C(c1nnc(-c2ccn(C(F)F)n2)o1)N1CCc2[nH]cnc2[C@H]1c1nc2cccc(C(F)(F)F)c2o1` [Example 854, (S)-(5-(1-(difluoromethyl)-1H-pyrazol-3-yl)-1,3,4-oxadiazol-2-yl)(4-(7-(trifluoromethyl)benzo[d]oxazol-2-yl)-6,7-dihydro-1H-imidazo[4,5-c]pyridin-5(4H)-yl)methanone], the AC50 was no more than 500 nM.
With `O=C(c1nnc(C2CC2)o1)N1CCc2[nH]cnc2[C@H]1c1nc2c(F)ccc(F)c2o1` [Example 855, (S)-(5-cyclopropyl-1,3,4-oxadiazol-2-yl)(4-(4,7-difluorobenzo[d]oxazol-2-yl)-6,7-dihydro-1H-imidazo[4,5-c]pyridin-5(4H)-yl)methanone], the AC50 was no more than 500 nM.
Next, `O=C(c1nnc(C2CC2)o1)N1CCc2[nH]cnc2[C@@H]1c1nc2c(F)ccc(F)c2o1` [Example 856, (R)-(5-cyclopropyl-1,3,4-oxadiazol-2-yl)(4-(4,7-difluorobenzo[d]oxazol-2-yl)-6,7-dihydro-1H-imidazo[4,5-c]pyridin-5(4H)-yl)methanone]: 500 to 1000 nM; `Cc1cccc2nc([C@H]3c4nc[nH]c4CCN3C(=O)c3nnc(-c4ncccc4F)o3)oc12` [Example 857, (R)-(5-(3-fluoropyridin-2-yl)-1,3,4-oxadiazol-2-yl)(4-(7-methylbenzo[d]oxazol-2-yl)-6,7-dihydro-1H-imidazo[4,5-c]pyridin-5(4H)-yl)methanone]: 1000 to 5000 nM; `Cc1cccc2nc([C@@H]3c4nc[nH]c4CCN3C(=O)c3nnc(-c4ncccc4F)o3)oc12` [Example 858, (S)-(5-(3-fluoropyridin-2-yl)-1,3,4-oxadiazol-2-yl)(4-(7-methylbenzo[d]oxazol-2-yl)-6,7-dihydro-1H-imidazo[4,5-c]pyridin-5(4H)-yl)methanone]: no more than 500 nM.
Take `Cc1cccc2nc([C@H]3c4nc[nH]c4CCN3C(=O)c3nnc(-c4ccn(C(F)F)n4)o3)oc12` [Example 859, (R)-(5-(1-(difluoromethyl)-1H-pyrazol-3-yl)-1,3,4-oxadiazol-2-yl)(4-(7-methylbenzo[d]oxazol-2-yl)-6,7-dihydro-1H-imidazo[4,5-c]pyridin-5(4H)-yl)methanone]: the AC50 fell in the range of 1000 to 5000 nM.
Next, `Cc1cccc2nc([C@@H]3c4nc[nH]c4CCN3C(=O)c3nnc(-c4ccn(C(F)F)n4)o3)oc12` [Example 860, (S)-(5-(1-(difluoromethyl)-1H-pyrazol-3-yl)-1,3,4-oxadiazol-2-yl)(4-(7-methylbenzo[d]oxazol-2-yl)-6,7-dihydro-1H-imidazo[4,5-c]pyridin-5(4H)-yl)methanone]: 500 to 1000 nM; `O=C(c1nnc(-c2ccn(C(F)F)n2)o1)N1CCc2[nH]cnc2[C@@H]1c1nc2cccc(F)c2o1` [Example 861, (R)-(5-(1-(difluoromethyl)-1H-pyrazol-3-yl)-1,3,4-oxadiazol-2-yl)(4-(7-fluorobenzo[d]oxazol-2-yl)-6,7-dihydro-1H-imidazo[4,5-c]pyridin-5(4H)-yl)methanone]: 500 to 1000 nM; `O=C(c1nnc(-c2ccn(C(F)F)n2)o1)N1CCc2[nH]cnc2[C@H]1c1nc2cccc(F)c2o1` [Example 862, (S)-(5-(1-(difluoromethyl)-1H-pyrazol-3-yl)-1,3,4-oxadiazol-2-yl)(4-(7-fluorobenzo[d]oxazol-2-yl)-6,7-dihydro-1H-imidazo[4,5-c]pyridin-5(4H)-yl)methanone]: no more than 500 nM.
The value for `O=C(c1ocnc1CC(F)F)N1CCc2[nH]cnc2[C@H]1c1nc2cccc(F)c2o1` [Example 863, (S)-(4-(2,2-difluoroethyl)oxazol-5-yl)(4-(7-fluorobenzo[d]oxazol-2-yl)-6,7-dihydro-1H-imidazo[4,5-c]pyridin-5(4H)-yl)methanone] was no more than 500 nM.
In the case of `O=C(c1ocnc1CC(F)F)N1CCc2[nH]cnc2[C@@H]1c1nc2cccc(F)c2o1` [Example 864, (R)-(4-(2,2-difluoroethyl)oxazol-5-yl)(4-(7-fluorobenzo[d]oxazol-2-yl)-6,7-dihydro-1H-imidazo[4,5-c]pyridin-5(4H)-yl)methanone], the AC50 was no more than 500 nM.
Next, `O=C(c1ocnc1CC(F)F)N1CCc2[nH]cnc2[C@H]1c1nc2cc(F)ccc2o1` [Example 865, (S)-(4-(2,2-difluoroethyl)oxazol-5-yl)(4-(5-fluorobenzo[d]oxazol-2-yl)-6,7-dihydro-1H-imidazo[4,5-c]pyridin-5(4H)-yl)methanone]: no more than 500 nM.

By AC50 is commonly meant the midpoint of the concentration-response curve, whichever way the signal moves.
